US10065990B2, “Cyclic peptide compound, and preparation method, pharmaceutical composition and use thereof” (HANGZHOU GUANYU BIO-MEDICAL CO., LTD, priority 2013, dated 2018)
Where two headings read alike, the source gives them in different places.

How the values were obtained:
[1] = test system: MOLT-4 (human acute lymphoblastic leukemia cells); assay: MTT cancer cell growth inhibition; format: cell-based; conditions: Homo sapiens, MOLT-4, 72 h, MTT, 72 hours incubation, read-out: GI50 Mol
From the text: (§1) MTT assay principle is yellow MTT can penetrate membrane into the cell, succinic dehydrogenase of the mitochondria in living cells can make exogenous MTT reduction of insoluble in water of blue-violet acicular formazan for crystallization and deposition in the cell, crystallization can be dissolved dimethyl sulfoxide (DMSO) solution, detected its absorbance at 490 nm/570 nm wavelength by enzyme-linked immunosorbent assay, which can reflect the number of cells.
(§2) Using DMEM+10% FBS culture medium or using 1640+10% FBS culture, respectively.
(§3) a) Cells were seeded in 96-well plates with the inoculation of 1500/well, 190 μl/hole, 37° C., 5% of CO2 incubator overnight;
(§4) b) The next day each well was added 10 μl of different drugs. The final concentration of drug was 10^−5˜10^−10M, three parallel holes; 37° C., 5% CO2 culture incubator for 72 hours incubation;
(§5) c) Per well was added 20 μl 5 mg/ml of MTT, 37° C., 5% CO2 culture incubator for 4 hours incubation;
(§6) d) The supernatant was discarded. Each well was added 100 μl of DMSO and oscillation;
(§7) e) 570 nm readings. Calculate cell viability. GI50 calculation based on the results.

[2] = test system: KBM-5 (human chronic myelogenous leukemia); assay: MTT cancer cell growth inhibition; format: cell-based; conditions: Homo sapiens, KBM5, 72 h, MTT, 72 hours incubation, KBM-5 cells; read-out: GI50 KBM-5
From the text: as §1, §2, §3, §4, §5, §6, §7

[3] = test system: H1975 (non-small cell lung adenocarcinoma); assay: MTT cancer cell growth inhibition; format: cell-based; conditions: Homo sapiens, NCI-H1975, 72 h, MTT, 72 hours incubation, H1975 cells; read-out: GI50 H1975
From the text: as §1, §2, §3, §4, §5, §6, §7

[4] = test system: DU145 (human prostate cancer cells); assay: MTT cancer cell growth inhibition; format: cell-based; conditions: Homo sapiens, DU-145, 72 h, MTT, 72 hours incubation, read-out: GI50 Du1
From the text: as §1, §2, §3, §4, §5, §6, §7

[5] = test system: N-87 (human gastric cancer cells); assay: MTT cancer cell growth inhibition; format: cell-based; conditions: Homo sapiens, 72 h, MTT, 72 hours incubation, N-87 cells; read-out: GI50 N-87
From the text: as §1, §2, §3, §4, §5, §6, §7

[6] = test system: A549 (human lung cancer cells); assay: MTT cancer cell growth inhibition; format: cell-based; conditions: Homo sapiens, A549, 72 h, MTT, 72 hours incubation, read-out: GI50 A54
From the text: as §1, §2, §3, §4, §5, §6, §7

[7] = test system: KBM5-T315I (human chronic myelogenous leukemia); assay: MTT cancer cell growth inhibition; format: cell-based; conditions: Homo sapiens, 72 h, MTT, 72 hours incubation, KBM5-T315I cells; read-out: GI50 KBM5-T315I
From the text: as §1, §2, §3, §4, §5, §6, §7

[8] = test system: K562 (human leukemia cells); assay: MTT cancer cell growth inhibition; format: cell-based; conditions: Homo sapiens, K562, 72 h, MTT, 72 hours incubation, K562 cells; read-out: GI50 K562
From the text: as §1, §2, §3, §4, §5, §6, §7

[9] = test system: SGC-7901 (human gastric cancer cells); assay: MTT cancer cell growth inhibition; format: cell-based; conditions: Homo sapiens, SGC-7901, 72 h, MTT, 72 hours incubation, SGC-7901 cells; read-out: GI50 SGC-7901
From the text: as §1, §2, §3, §4, §5, §6, §7

[10] = test system: Hela (human cervical cancer cells); assay: MTT cancer cell growth inhibition; format: cell-based; conditions: Homo sapiens, HeLa, 72 h, MTT, 72 hours incubation, read-out: GI50 Hela
From the text: as §1, §2, §3, §4, §5, §6, §7

[11] = test system: Bel-7402 (human hepatoma cells); assay: MTT cancer cell growth inhibition; format: cell-based; conditions: Homo sapiens, Bel-7402, 72 h, MTT, 72 hours incubation, Bel-7402 cells; read-out: GI50 Bel-7402
From the text: as §1, §2, §3, §4, §5, §6, §7

[12] = test system: BGC-823 (human gastric cancer cells); assay: MTT cancer cell growth inhibition; format: cell-based; conditions: Homo sapiens, BGC-823, 72 h, MTT, 72 hours incubation, read-out: GI50 BG
From the text: as §1, §2, §3, §4, §5, §6, §7

[13] = test system: PANC-1 (Pac-1, human pancreatic cancer cells); assay: MTT cancer cell growth inhibition; format: cell-based; conditions: Homo sapiens, PANC-1, 72 h, MTT, 72 hours incubation, read-out: GI50 PAN
From the text: as §1, §2, §3, §4, §5, §6, §7

[14] = test system: U937 (human leukemia cells); assay: MTT cancer cell growth inhibition; format: cell-based; conditions: Homo sapiens, U-937, 72 h, MTT, 72 hours incubation, read-out: GI50 U93
From the text: as §1, §2, §3, §4, §5, §6, §7

[15] = test system: MCF-7 (human breast cancer cells); assay: MTT cancer cell growth inhibition; format: cell-based; conditions: Homo sapiens, MCF7, 72 h, 72 hours incubation, read-out: GI50 MCF
From the text: as §1, §2, §3, §4, §5, §6, §7

[16] = test system: MDA-MB-231 (breast cancer cells); assay: MTT cancer cell growth inhibition; format: cell-based; conditions: Homo sapiens, MDA-MB-231, 72 h, read-out: GI50 MDA-MB-231, MTT, 72 hours incubation, MDA-MB-231 cells
From the text: as §1, §2, §3, §4, §5, §6, §7

[17] = test system: HT1080 (human fibrosarcoma cells); assay: MTT cancer cell growth inhibition; format: cell-based; conditions: Homo sapiens, HT-1080, 72 h, MTT, 72 hours incubation, read-out: GI50 HT1
From the text: as §1, §2, §3, §4, §5, §6, §7

[18] = test system: Huh-7 (human hepatoma cells); assay: MTT cancer cell growth inhibition; format: cell-based; conditions: Homo sapiens, Huh-7, 72 h, MTT, 72 hours incubation, Huh-7 cells; read-out: GI50 Huh-7
From the text: as §1, §2, §3, §4, §5, §6, §7

[19] = test system: HCC827 (human non-small cell lung cancer cells); assay: MTT cancer cell growth inhibition; format: cell-based; conditions: Homo sapiens, HCC827, 72 h, MTT, 72 hours incubation, HCC827 cells; read-out: GI50 HCC827
From the text: as §1, §2, §3, §4, §5, §6, §7

[20] = test system: lncap (prostate cancer cells); assay: MTT cancer cell growth inhibition; format: cell-based; conditions: Homo sapiens, LNCaP, 72 h, MTT, 72 hours incubation, read-out: GI50 lnca
From the text: as §1, §2, §3, §4, §5, §6, §7

HDAC7 = target: T1, HDAC7 (Homo sapiens, UniProt Q8WUI4); assay: HDAC biochemical activity measurement (fluorescent substrate deacetylation);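 for all read-outs here: fluorogenic deacetylation assay using acetyl-lysine substrate at 20 µM, enzyme and compound incubated 30 min at 37 °C, then developer added, fluorescence read at 360/460 nm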; conditions: for IC50 HDAC7: 37° C. 30 minutes
T1 sequence (Q8WUI4 1-952): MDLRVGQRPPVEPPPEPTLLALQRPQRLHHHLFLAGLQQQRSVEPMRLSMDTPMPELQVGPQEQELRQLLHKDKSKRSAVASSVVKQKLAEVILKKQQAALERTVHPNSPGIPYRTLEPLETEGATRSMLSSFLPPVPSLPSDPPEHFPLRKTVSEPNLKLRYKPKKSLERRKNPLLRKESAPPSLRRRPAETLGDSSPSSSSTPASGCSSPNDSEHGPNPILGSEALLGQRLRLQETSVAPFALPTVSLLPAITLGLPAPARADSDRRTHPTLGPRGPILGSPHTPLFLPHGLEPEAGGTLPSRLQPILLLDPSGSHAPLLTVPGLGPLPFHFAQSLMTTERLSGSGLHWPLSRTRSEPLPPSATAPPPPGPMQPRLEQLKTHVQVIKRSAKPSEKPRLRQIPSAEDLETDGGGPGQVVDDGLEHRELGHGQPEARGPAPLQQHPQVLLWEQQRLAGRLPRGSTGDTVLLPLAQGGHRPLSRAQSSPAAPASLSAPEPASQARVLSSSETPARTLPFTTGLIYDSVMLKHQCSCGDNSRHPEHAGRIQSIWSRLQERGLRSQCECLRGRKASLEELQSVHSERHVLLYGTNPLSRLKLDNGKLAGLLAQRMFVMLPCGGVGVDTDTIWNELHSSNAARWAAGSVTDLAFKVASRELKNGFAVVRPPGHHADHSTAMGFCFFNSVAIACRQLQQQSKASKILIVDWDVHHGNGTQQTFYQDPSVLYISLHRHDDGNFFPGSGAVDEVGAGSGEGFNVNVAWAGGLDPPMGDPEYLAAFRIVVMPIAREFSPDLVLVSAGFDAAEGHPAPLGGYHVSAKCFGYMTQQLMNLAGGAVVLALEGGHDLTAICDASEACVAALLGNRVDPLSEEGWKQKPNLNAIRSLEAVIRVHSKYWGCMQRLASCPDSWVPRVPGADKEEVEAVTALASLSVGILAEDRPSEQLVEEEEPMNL

Structure (SMILES)	GI50 ([1]; MOLT-4 cells) [nM]	GI50 [2] [nM]	GI50 [3] [nM]	GI50 ([4]; DU145 cells) [nM]	GI50 [5] [nM]	GI50 ([6]; A549 cells) [nM]	GI50 [7] [nM]	GI50 [8] [nM]	GI50 [9] [nM]	GI50 ([10]; Hela cells) [nM]	GI50 [11] [nM]	GI50 ([12]; BGC-823 cells) [nM]	GI50 ([13]; PANC-1 cells) [nM]	GI50 ([14]; U937 cells) [nM]	GI50 ([15]; MCF-7 cells) [nM]	GI50 [16] [nM]	GI50 ([17]; HT1080 cells) [nM]	GI50 [18] [nM]	GI50 [19] [nM]	GI50 ([20]; lncap cells) [nM]	further results
C/C=C1\NC(=O)c2ccc(SC)c(n2)CNC(=O)C[C@@H](/C=C/CCSC(=O)CCCCCC)OC(=O)[C@H](C(C)C)NC1=O [Compound 152]	90	41	38	60	35	50	29	11	23	60	47	50	50	50	60	65	90	28	35	60	IC50 HDAC7 (HDAC7): no activity
C/C=C1\NC(=O)c2cc(SC)cc(n2)CNC(=O)C[C@@H](/C=C/CCSC(C)=O)OC(=O)[C@H](CCCCNC(=O)OCC2c3ccccc3-c3ccccc32)NC1=O [Compound 196]	30	28	62	130	56	20	93	58	45	80	89	50	60	60	60	85	70	23	64	60	IC50 HDAC7 (HDAC7): no activity
C/C=C1\NC(=O)c2ccc(SCC)c(n2)CNC(=O)C[C@@H](/C=C/CCSC(=O)CCCCCC)OC(=O)[C@H](C(C)C)NC1=O [Compound 252]	90	72	90	70	67	50	81	81	35	50	79	30	60	40	20	42	40	26	76	50	IC50 (μM) HDAC7 (HDAC7): no activity
C/C=C1\NC(=O)c2nc(ccc2F)CNC(=O)C[C@@H](/C=C/CCS)OC(=O)[C@H](Cc2cccc3ccccc23)NC1=O [Compound 124]	–	57	28	–	45	–	15	76	42	–	72	–	–	–	–	51	–	16	35	–	GI50 [1]: 50 nM; GI50 [4]: 20 nM; GI50 [6]: 50 nM; GI50 [10]: 30 nM; GI50 [12]: 30 nM; GI50 [13]: 690 nM; GI50 [14]: 100 nM; GI50 [15]: 30 nM; GI50 [17]: 30 nM; GI50 [20]: 70 nM; IC50 HDAC7 (HDAC7): no activity
